Key:
[1] = system: secretion of PGE2 by A549 cells stimulated with IL-1β; assay: Inhibition of the secretion of PGE2 by A549 cells stimulated with IL-1β; assay type: cell-based; settings: Homo sapiens, A549; IL-1β 0.2 ng/mL, 24 hours
Source text: The method described here was used for determining the inhibition activity of the present compounds on the secretion of PGE2 by A549 cells stimulated with IL-1β.
• 1. PGE2 Assay kit (Cisbio, #62P2APEB) • 2. IL-1β (Peprotech, # AF-200-01B) • 3. Cell line: A549 (ATCC: CCL-185) • 4. FlexStation3 microplate reader. II. Experimental Procedure
On the first day, A549 cells were inoculated in a 96-well plate at 40000/well. On the second day, the culture medium in the 96-well plate was removed and then added with 90 μL of compound diluted with culture medium (the concentration of each compound at seven gradient concentrations was 11111 nM, […], 1.11 nM, 0.11 nM and 0.011 nM). The cells were incubated for 30 minutes at 37° C. in an incubator, and then added with IL-1β to a final concentration of 0.2 ng/mL. Then, the cells were incubated for another 24 hours at 37° C. On the third day, 10 μl of supernatant, 5 μL of PGE2-d2 and 5 μL of anti-PGE2 Cryptate were added into a black 384-well plate, and then incubated at 4° C. overnight. HTRF was determined using Flexstation, and the IC50 of the compounds was obtained by data processing software.
The inhibition activity of the present compounds on the secretion of PGE2 by A549 cells stimulated with IL-1β was determined by the assay described above.

human mPGES1 = human mPGES1 (Homo sapiens (Human), UniProt O14684); assay: Inhibition activity for human mPGES1 (enzyme assay, PGE2 HTRF); assay type: biochemical; settings: membrane protein from HEK-293 F transfected with human mPGES1
Protocol: The method described here is used for determining the inhibition activity of the present compounds for human mPGES1.
• 1. PGE2 Assay kit (Cisbio, #62P2APEB) • 2. Prostaglandin H2 (Sigma, #P7867-1MG) • 3. FlexStation3 microplate reader. II. Experimental Procedure • 1. Obtaining the membrane proteins of mPGES1 enzyme
The cell density of HEK-293 F was grown to 6×10^5 per milliliter and was transferred with the plasmid containing human mPGES1 gene by transfection reagent PEI the next day. The cells were continuously cultured for 72 hours at 37° C. with shaking. After centrifuging at 1100 g for 5 minutes, the cells were harvested. After ultrasonication in an ice bath and centrifugation at 5000 g for 10 minutes, the supernatant was obtained. The supernatant was centrifuged at 100000 g for 1 hour to obtain a precipitate. The precipitate was resuspended with storage buffer containing 10% glycerinum, subpackaged and frozen rapidly under liquid nitrogen, and stored at −80° C. • 2. mPGES1 enzyme assay
mPGES1 was diluted with assay buffer and added into plate at 49 μL/well supplemented with 1 μL of compound (the final concentration of each compound at seven gradient concentrations was 10000 nM, 1000 nM, 100 nM, 10 nM, 1 nM, 0.1 nM and 0.01 nM). […] Then, each well was added with 53.8 μL of 6 mg/mL SnCl2 to quench the reaction. The sample was diluted with dilute buffer at 1:400. 10 μl of diluted sample, 5 μL PGE2-d2 and 5 μL anti-PGE2 Cryptate were added to a black 384-well plate, and incubated at 4° C. overnight. HTRF was determined using Flexstation, and the IC50 of the compounds was obtained by data processing software.
The inhibition activity of the present compounds on mPGES1 was tested by the assay described above.

human mPGES1, sequence (O14684 whole entry): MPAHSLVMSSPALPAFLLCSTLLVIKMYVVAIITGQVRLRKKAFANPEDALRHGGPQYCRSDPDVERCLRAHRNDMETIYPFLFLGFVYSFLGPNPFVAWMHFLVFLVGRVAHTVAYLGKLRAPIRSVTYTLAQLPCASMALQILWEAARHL

For `CC(C)(C)C(=O)NCc1ccc(Cl)c(C(=O)Nc2ccc3c(c2)C(=O)N(c2ccc(Cl)cc2)C3)c1` [Example 57, 2-Chloro-N-(2-(4-chlorophenyl)-3-oxo-isoindolin-5-yl)-5-((2,2-dimethylpropanoylamino)methyl)benzamide], which IC50 [1] is on record?
The IC50 was 6.22 nM.

What about the IC50 (human mPGES1) of the same compound?
Its IC50 is 6.75 nM.

What does the source list for `CCn1c(-c2ccc(Cl)cc2)cc2cc(NC(=O)c3cc(CNC(=O)C(C)C)cnc3C(F)F)ccc21` [Example 10, 2-(Difluoromethyl)-N-(1-ethyl-2-(4-chlorophenyl)-1H-indol-5-yl)-5-((2-methylpropanoylamino)methyl)nicotinamide]?
IC50 [1]: 12.3 nM; IC50 (human mPGES1): 11.2 nM

With `Cn1c(-c2ccc(Cl)cc2)cc2cc(NC(=O)c3cc(CNC(=O)C4(C(F)(F)F)CC4)cnc3C(F)F)ccc21` [Example 21, N-(2-(4-Chlorophenyl)-1-methyl-1H-indol-5-yl)-2-(difluoromethyl)-5-(((1-(trifluoromethyl)cyclopropanecarbonyl)amino)methyl)nicotinamide] as the compound, how does the IC50 [1] read?
The IC50 was 57.4 nM.

What about the IC50 (human mPGES1) of the same compound?
Its IC50 is 8.24 nM.

Which results are given for `CC(C)C(=O)NCc1cnc(C(F)F)c(C(=O)Nc2ccc3oc(-c4ccc(Cl)cc4)nc3c2)c1` [Example 45, N-(2-(4-Chlorophenyl)benzo[d]oxazol-5-yl)-2-(difluoromethyl)-5-((2-methylpropanoylamino)methyl)nicotinamide]?
IC50 [1]: 25.9 nM; IC50 (human mPGES1): 49.4 nM

Which IC50 [1] does the source give for `CC(C)C(=O)NCc1cnc(C(F)F)c(C(=O)Nc2ccc3c(c2)cc(-c2ccc(Cl)cc2)n3C)c1` [Example 13, N-(2-(4-chlorophenyl)-1-methyl-1H-indol-5-yl)-2-(difluoromethyl)-5-((2-methylpropanoylamino)methyl)nicotinamide] here?
The IC50 was 16.7 nM.

What about the IC50 (human mPGES1) of the same compound?
The IC50 was 7.43 nM.

How did the IC50 [1] turn out when `CC(C)(F)C(=O)NCc1cnc(C(F)F)c(C(=O)Nc2ccc3c(c2)CN(c2ccc(C(F)(F)F)cc2)C3)c1` [Example 26, 2-(Difluoromethyl)-5-(((2-fluoro-2-methyl-propanoyl)amino)methyl)-N-(2-(4-(trifluoromethyl)phenyl)isoindolin-5-yl)nicotinamide] was run?
Its IC50 is 46 nM.

And the IC50 (human mPGES1)?
Its IC50 is 3.38 nM.

`Cn1c(-c2ccc(Cl)cc2)nc2cc(NC(=O)c3cc(CNC(=O)C(C)(C)C)ccc3Cl)ccc21` [Example 55, 2-Chloro-N-(2-(4-chlorophenyl)-1-methyl-1H-benzo[d]imidazol-5-yl)-5-((2,2-dimethylpropanoylamino)methyl)benzamide] was tested. Which IC50 (human mPGES1) did it give?
The IC50 was 29.8 nM.

`CCn1c(-c2ccc(Cl)cc2)nc2cc(NC(=O)c3cc(CNC(=O)C(C)(C)C)ccc3Cl)ccc21` [Example 52, 2-Chloro-N-(2-(4-chlorophenyl)-1-ethyl-1H-benzo[d]imidazol-5-yl)-5-((2,2-dimethylpropanoylamino)methyl)benzamide] was tested. Which IC50 [1] did it give?
Its IC50 is 55.2 nM.

What does the source list for `CC1(C(=O)NCc2cnc(C(F)F)c(C(=O)Nc3ccc4oc(-c5ccc(C(F)(F)F)cc5)nc4c3)c2)CC1` [Example 43, 2-(Difluoromethyl)-5-(((1-methylcyclopropanecarbonyl)amino)methyl)-N-(2-(4-(trifluoromethyl)phenyl)benzo[d]oxazol-5-yl)nicotinamide]?
IC50 [1]: 58.2 nM; IC50 (human mPGES1): 16 nM

`Cn1c(-c2ccc(F)cc2)cc2cc(NC(=O)c3cc(CNC(=O)C4(C(F)(F)F)CC4)ccc3Cl)ccc21` [Example 34, 2-Chloro-N-(2-(4-fluorophenyl)-1-methyl-1H-indol-5-yl)-5-(((1-(trifluoromethyl)cyclopropanecarbonyl)amino)methyl)benzamide] was tested. Which IC50 [1] did it give?
The IC50 was 12.2 nM.

And the IC50 (human mPGES1)?
Its IC50 is 7.75 nM.

With `CCn1c(-c2ccc(Cl)cc2)cc2cc(NC(=O)c3cc(CNC(=O)C4(C)CC4)cnc3C(F)F)ccc21` [Example 42, N-(2-(4-Chlorophenyl)-1-ethyl-1H-indol-5-yl)-2-(difluoromethyl)-5-(((1-methylcyclopropanecarbonyl)amino)methyl)nicotinamide] as the compound, how does the IC50 (human mPGES1) read?
Its IC50 is 7.21 nM.

With `CC(C)(C)C(=O)NCc1ccc(Cl)c(C(=O)Nc2ccc3c(c2)C(=O)N(c2ccc(C(F)(F)F)cc2)C3)c1` [Example 58] as the compound, how does the IC50 [1] read?
Its IC50 is 2.18 nM.

What about the IC50 (human mPGES1) of the same compound?
The IC50 was 8.51 nM.

How did the IC50 [1] turn out when `CC(C)(C)C(=O)NCc1ccc(Cl)c(C(=O)Nc2ccc3c(c2)CN(c2ccc(C(F)(F)F)cc2)C3)c1` [Example 25, 2-Chloro-5-((2,2-dimethylpropanoylamino)methyl)-N-(2-(4-(trifluoromethyl)phenyl)isoindolin-5-yl)benzamide] was run?
Its IC50 is 47.6 nM.

And the IC50 (human mPGES1)?
The IC50 was 11.9 nM.

With `CC(C)(C)C(=O)NCc1ccc(Cl)c(C(=O)Nc2ccc3nn(-c4ccc(Cl)cc4)cc3c2)c1` [Example 16, 2-Chloro-N-(2-(4-chlorophenyl)-2H-indazol-5-yl)-5-((2,2-dimethylpropanoylamino)methyl)benzamide] as the compound, how does the IC50 [1] read?
Its IC50 is 26.2 nM.

And the IC50 (human mPGES1)?
Its IC50 is 9.31 nM.

For `CC(C)(F)C(=O)NCc1cnc(C(F)F)c(C(=O)Nc2ccc3c(c2)CN(c2cccc(C(F)(F)F)c2)C3)c1` [Example 49, 2-(Difluoromethyl)-5-(((2-fluoro-2-methyl-propanoyl)amino)methyl)-N-(2-(3-(trifluoromethyl)phenyl)isoindolin-5-yl)nicotinamide], which IC50 [1] is on record?
The IC50 was 24 nM.

What about the IC50 (human mPGES1) of the same compound?
Its IC50 is 8.29 nM.

What does the source list for `CCn1c(-c2ccc(C(F)(F)F)cc2)cc2cc(NC(=O)c3cc(CNC(=O)C(C)C)cnc3C(F)F)ccc21` [Example 1, 2-(difluoromethyl)-N-(1-ethyl-2-(4-(trifluoromethyl)phenyl)-1H-indol-5-yl)-5-((2-methylpropanoylamino)methyl)nicotinamide]?
IC50 [1]: 3.55 nM; IC50 (human mPGES1): 8.26 nM

With `Cn1c(-c2ccc(C(F)(F)F)cc2)cc2cc(NC(=O)c3cc(CNC(=O)C(C)(C)F)cnc3C(F)F)ccc21` [Example 15, 2-(Difluoromethyl)-5-(((2-fluoro-2-methyl-propanoyl)amino)methyl)-N-(1-methyl-2-(4-(trifluoromethyl)phenyl)-1H-indol-5-yl)nicotinamide] as the compound, how does the IC50 [1] read?
Its IC50 is 33.3 nM.

What about the IC50 (human mPGES1) of the same compound?
The IC50 was 23.4 nM.

Which results are given for `CCn1c(-c2ccccc2Cl)cc2cc(NC(=O)c3cc(CNC(=O)C(C)(C)F)cnc3C(F)F)ccc21` [Example 19, N-(2-(2-Chlorophenyl)-1-ethyl-1H-indol-5-yl)-2-(difluoromethyl)-5-(((2-fluoro-2-methyl-propanoyl)amino)methyl)nicotinamide]?
IC50 [1]: 42.6 nM; IC50 (human mPGES1): 8.12 nM

With `CC(C)C(=O)NCc1cnc(C(F)F)c(C(=O)Nc2ccc3c(c2)cc(-c2ccc(C(F)(F)F)cc2)n3C)c1` [Example 9, 2-(difluoromethyl)-N-(1-methyl-2-(4-(trifluoromethyl)phenyl)-1H-indol-5-yl)5-((2-methylpropanoylamino)methyl)-nicotinamide] as the compound, how does the IC50 [1] read?
Its IC50 is 11.8 nM.

What about the IC50 (human mPGES1) of the same compound?
Its IC50 is 15.6 nM.

Which IC50 (human mPGES1) does the source give for `CC1(C(=O)NCc2ccc(Cl)c(C(=O)Nc3ccc4oc(-c5ccc(C(F)(F)F)cc5)nc4c3)c2)CC1` [Example 41, 2-Chloro-5-(((1-methylcyclopropanecarbonyl)amino)methyl)-N-(2-(4-(trifluoromethyl)phenyl)benzo[d]oxazol-5-yl)benzamide] here?
The IC50 was 25.6 nM.

For `CCn1c(-c2ccc(F)cc2)cc2cc(NC(=O)c3cc(CNC(=O)C(C)(C)C)ccc3Br)ccc21` [Example 7, 2-Bromo-N-(1-ethyl-2-(4-fluorophenyl)-1H-indol-5-yl)5-((2,2-dimethylpropanoylamino)methyl)-benzamide], which IC50 [1] is on record?
Its IC50 is 10.4 nM.

With `CCn1cc(-c2ccc(F)cc2)c2cc(NC(=O)c3cc(CNC(=O)C(C)(C)C)ccc3Br)ccc21` [Example 6, 2-Bromo-N-(1-ethyl-3-(4-fluorophenyl)-1H-indol-5-yl)-5-((2,2-dimethylpropanoylamino)methyl)-benzamide] as the compound, how does the IC50 [1] read?
Its IC50 is 68.1 nM.

With `CCn1c(-c2ccc(F)cc2)cc2cc(NC(=O)c3cc(CNC(=O)C(C)(C)C)ccc3Cl)cnc21` [Example 4, 2-Chloro-N-(1-ethyl-2-(4-fluorophenyl)-1H-pyrrolo[2,3-b]pyridin-5-yl)-5-((2,2-dimethylpropanoylamino)methyl)-benzamide] as the compound, how does the IC50 [1] read?
Its IC50 is 26.9 nM.

From patent US10081629B2, “Amide derivatives and pharmaceutically acceptable salts thereof, preparation method thereof and medicinal application thereof” (Shanghai Hengrui Pharmaceutical Co., Ltd., priority 2014, dated 2018)
